Measured values as given in article PMC10537618, “Effect of Betanin, the Major Pigment of Red Beetroot (Beta vulgaris L.), on the Activity of Recombinant Human Cytochrome P450 Enzymes” (Pharmaceuticals, 2023).

Experiments:
recombinant CYP2D6 = target: T1, recombinant CYP2D6 (Homo sapiens, UniProt P10635); assay: Vivid fluorescence-based CYP inhibition assay, recombinant CYP2D6 (EOMCC substrate); assay type: in vitro ADME
T1 construct: purchased Thermo Fisher Scientific; host or cells: insect cells (microsomes)
T1 sequence (P10635 whole entry): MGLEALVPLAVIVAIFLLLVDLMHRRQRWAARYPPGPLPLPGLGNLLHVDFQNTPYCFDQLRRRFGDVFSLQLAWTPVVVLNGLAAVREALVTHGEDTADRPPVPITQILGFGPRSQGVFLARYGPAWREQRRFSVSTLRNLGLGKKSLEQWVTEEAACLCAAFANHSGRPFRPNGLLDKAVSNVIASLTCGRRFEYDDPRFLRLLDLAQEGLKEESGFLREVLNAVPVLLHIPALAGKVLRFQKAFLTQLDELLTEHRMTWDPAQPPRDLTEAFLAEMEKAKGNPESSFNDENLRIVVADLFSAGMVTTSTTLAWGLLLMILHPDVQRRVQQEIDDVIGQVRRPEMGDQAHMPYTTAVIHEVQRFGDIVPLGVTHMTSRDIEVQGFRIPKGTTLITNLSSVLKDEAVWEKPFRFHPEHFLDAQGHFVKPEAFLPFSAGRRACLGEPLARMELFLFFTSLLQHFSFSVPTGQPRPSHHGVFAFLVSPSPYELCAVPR
Experimental: (§1) We measured the activity of six representative CYPs using Vivid CYP screening kits. CYP activity was evaluated using recombinant CYPs and specific fluorescent substrates 7-ethoxymethoxy-3-cyanocoumarin (EOMCC) and 7-benzyloxymethyloxy-3-cyanocoumarin (BOMCC).
(§2) Raw fluorescence data were normalized against control activity values of 0% and 100%. Control 0% activity values were obtained from samples consisting of 0.5% DMSO and the enzyme solvent buffer without the enzyme. Maximum 100% activity values were expressed as a reaction with only enzymes and 0.5% DMSO, with no other drugs. Furafylline (FRL) 100 μM, bupropion (BPP) 50 μM, omeprazole (OPZ) 50 μM, fluvoxamine (FVX) 100 μM, quinidine (QND) 50 μM, and ketoconazole (KCZ) 1 μM were used as positive controls for the fluorescence-based assay. […] Raw data were normalized using the software GraphPad Prism 8.02. The data represent the mean ± SEM of triplicate independent experiments.
(§3) Fluorescence-based assays were performed according to the manufacturer’s instructions. […] The plates were immediately measured in the kinetic mode using a SpectraMax M3 Multi-Mode Microplate Reader (Bio-Rad, Hercules, CA, USA). […] The signals were measured using a SpectraMax M3 Multi-Mode Microplate Reader (Bio-Rad). Data fitting generated a sigmoidal dose–response curve with values calculated using Microsoft Excel 2016 (Microsoft Corporation, Redmond, WA, USA).

HepG2 cells = assay: MTT cell viability assay; assay type: cell-based, human; details: 0.1–100 μM, 48 h
Experimental: Human hepatocellular carcinoma (HepG2) cells were cultured in Minimum Essential Medium (MEM) supplemented with 10% fetal bovine serum and 1% penicillin–streptomycin. HepG2 cells were maintained at 37 °C in a humidified environment with a 5% CO₂ atmosphere. The culture medium was replaced every day before measuring CYP activity. HepG2 cells were grown in opaque 96-well plates at a density of 1 × 10^4 cells/well. After 24 h, the cells were added with the desired concentration of betanin for 48 h. Next, 20 µL of 5 mg/mL MTT solution in PBS was added to each well and incubated for 2 h. After removing the supernatant, 100 µL of DMSO was dispensed into each well and the plate was incubated for 10 min.

recombinant CYP3A4 [1] = target: T2, recombinant CYP3A4 (Homo sapiens, UniProt P08684); assay: Vivid fluorescence-based CYP inhibition assay, recombinant CYP3A4 (BOMCC substrate); assay type: in vitro ADME
T2 construct: purchased Thermo Fisher Scientific; host or cells: insect cells (microsomes)
T2 sequence (P08684 2-503 limits assumed): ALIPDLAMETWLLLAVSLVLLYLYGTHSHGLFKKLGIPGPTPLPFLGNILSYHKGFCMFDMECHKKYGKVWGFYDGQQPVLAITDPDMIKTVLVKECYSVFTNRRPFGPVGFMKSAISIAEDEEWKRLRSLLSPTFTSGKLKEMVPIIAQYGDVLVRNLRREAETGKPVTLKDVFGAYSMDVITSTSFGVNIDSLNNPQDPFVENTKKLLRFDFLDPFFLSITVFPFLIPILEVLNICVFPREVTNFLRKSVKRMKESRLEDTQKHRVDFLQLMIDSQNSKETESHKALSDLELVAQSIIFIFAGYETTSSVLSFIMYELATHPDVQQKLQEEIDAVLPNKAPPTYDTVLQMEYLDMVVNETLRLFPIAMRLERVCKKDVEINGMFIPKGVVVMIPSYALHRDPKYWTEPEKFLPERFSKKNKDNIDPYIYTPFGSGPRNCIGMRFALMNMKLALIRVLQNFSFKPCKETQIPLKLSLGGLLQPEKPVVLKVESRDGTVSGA
Experimental: as §1, §2
Fluorescence-based assays were performed according to the manufacturer’s instructions. Control, CYP positive control inhibitor, and betanin (0.1–100 μM) solutions were prepared by diluting the compounds with Vivid CYP Reaction Buffer (Table 1). Next, 40 µL of control, CYP positive control inhibitor, or betanin solution was dispensed into the wells of black 96-well plates. A Master Pre-Mix was prepared by diluting the P450 BAC-ULOSOMES Plus Reagent and Vivid Regeneration System in Vivid CYP Reaction Buffer. The P450 BACULOSOMES Plus Reagents are microsomes made from insect cells that express human cytochrome P450 reductase and CYP450 isozyme. […] The plates were immediately measured in the kinetic mode using a SpectraMax M3 Multi-Mode Microplate Reader (Bio-Rad, Hercules, CA, USA). […] The signals were measured using a SpectraMax M3 Multi-Mode Microplate Reader (Bio-Rad). Data fitting generated a sigmoidal dose–response curve with values calculated using Microsoft Excel 2016 (Microsoft Corporation, Redmond, WA, USA).

recombinant CYP2B6 = target: T3, recombinant CYP2B6 (Homo sapiens, UniProt P20813); assay: Vivid fluorescence-based CYP inhibition assay, recombinant CYP2B6 (BOMCC substrate); assay type: in vitro ADME
T3 construct: purchased Thermo Fisher Scientific; host or cells: insect cells (microsomes)
T3 sequence (P20813 1-491): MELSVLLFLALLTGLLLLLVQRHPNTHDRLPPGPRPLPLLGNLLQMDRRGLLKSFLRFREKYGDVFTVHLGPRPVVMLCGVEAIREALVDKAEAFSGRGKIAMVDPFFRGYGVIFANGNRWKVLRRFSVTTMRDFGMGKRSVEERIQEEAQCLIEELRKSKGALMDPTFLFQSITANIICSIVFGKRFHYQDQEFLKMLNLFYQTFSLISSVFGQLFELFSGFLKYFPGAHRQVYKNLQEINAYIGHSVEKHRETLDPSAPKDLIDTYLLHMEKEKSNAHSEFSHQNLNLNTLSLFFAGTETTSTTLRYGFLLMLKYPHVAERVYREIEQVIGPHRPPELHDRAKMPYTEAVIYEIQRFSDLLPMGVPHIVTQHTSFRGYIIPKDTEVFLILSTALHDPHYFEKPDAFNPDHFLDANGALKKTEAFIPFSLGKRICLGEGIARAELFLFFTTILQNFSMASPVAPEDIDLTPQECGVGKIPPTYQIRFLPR
Experimental: as §1, §2, §3

recombinant CYP1A2 = target: T4, recombinant CYP1A2 (Homo sapiens, UniProt P05177); assay: Vivid fluorescence-based CYP inhibition assay, recombinant CYP1A2 (EOMCC substrate); assay type: in vitro ADME
T4 construct: purchased Thermo Fisher Scientific; host or cells: insect cells (microsomes)
T4 sequence (P05177 2-516 limits assumed): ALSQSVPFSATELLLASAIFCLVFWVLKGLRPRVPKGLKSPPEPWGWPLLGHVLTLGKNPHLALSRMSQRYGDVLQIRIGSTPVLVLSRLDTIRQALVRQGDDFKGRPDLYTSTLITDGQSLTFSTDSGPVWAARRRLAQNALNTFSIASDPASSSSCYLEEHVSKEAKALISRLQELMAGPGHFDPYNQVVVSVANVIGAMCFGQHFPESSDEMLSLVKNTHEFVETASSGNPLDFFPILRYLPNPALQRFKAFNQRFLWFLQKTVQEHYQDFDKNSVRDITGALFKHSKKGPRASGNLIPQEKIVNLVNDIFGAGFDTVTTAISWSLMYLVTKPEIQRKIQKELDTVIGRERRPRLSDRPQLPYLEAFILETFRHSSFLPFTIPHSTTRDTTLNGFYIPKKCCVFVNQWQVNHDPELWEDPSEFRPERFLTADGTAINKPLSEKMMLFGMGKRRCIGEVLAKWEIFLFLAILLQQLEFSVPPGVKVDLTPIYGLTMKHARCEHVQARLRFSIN
Experimental: as §1, §2, §3

recombinant CYP3A4 [2] = target: T2, recombinant CYP3A4; assay: CYP3A4 enzyme kinetics, Lineweaver–Burk plot and secondary plot for Ki; assay type: in vitro ADME
Experimental: Next, we measured the kinetics of betanin metabolization by recombinant CYP3A4. Using the Michaelis constant (Km) and Vmax, we generated a Lineweaver–Burk plot. To obtain inhibition constant (Ki) values, various concentrations of BOMCC were incubated in the absence or presence of 3–100 μM betanin.
Data were obtained from 30 min incubation with BOMCC (1–20 μM) in the absence or presence of betanin (3–100 μM). All data are represented as mean ± SD from at least three independent experiments.
CYP activity was measured using Vivid CYP screening kits supplied with P450 BACULOSOMES Plus Reagent containing each CYP. The assays were conducted in the absence or presence of betanin and different concentrations of specific substrates. BOMCC was used as a specific substrate for CYP3A4. Lineweaver–Burk plots were generated for the determination of CYP activity in the absence or presence of betanin.

CYP2C9 = assay: P450-Glo luminescence-based CYP induction assay in HepG2 cells, CYP2C9 (Luciferin-H); assay type: in vitro ADME, human; details: betanin 0.1–100 μM, versus control (DMSO 0.5%)
Description: (§4) Results are mean ± SEM of triplicate independent experiments.

CYP1A2 = assay: P450-Glo luminescence-based CYP induction assay in HepG2 cells, CYP1A2 (Luciferin-1A2); details: betanin 0.1–100 μM, versus control (DMSO 0.5%)
Description: as §4

recombinant CYP2C19 = target: T5, recombinant CYP2C19 (Homo sapiens, UniProt P33261); assay: Vivid fluorescence-based CYP inhibition assay, recombinant CYP2C19 (EOMCC substrate); assay type: in vitro ADME
T5 construct: purchased Thermo Fisher Scientific; host or cells: insect cells (microsomes)
T5 sequence (P33261 whole entry): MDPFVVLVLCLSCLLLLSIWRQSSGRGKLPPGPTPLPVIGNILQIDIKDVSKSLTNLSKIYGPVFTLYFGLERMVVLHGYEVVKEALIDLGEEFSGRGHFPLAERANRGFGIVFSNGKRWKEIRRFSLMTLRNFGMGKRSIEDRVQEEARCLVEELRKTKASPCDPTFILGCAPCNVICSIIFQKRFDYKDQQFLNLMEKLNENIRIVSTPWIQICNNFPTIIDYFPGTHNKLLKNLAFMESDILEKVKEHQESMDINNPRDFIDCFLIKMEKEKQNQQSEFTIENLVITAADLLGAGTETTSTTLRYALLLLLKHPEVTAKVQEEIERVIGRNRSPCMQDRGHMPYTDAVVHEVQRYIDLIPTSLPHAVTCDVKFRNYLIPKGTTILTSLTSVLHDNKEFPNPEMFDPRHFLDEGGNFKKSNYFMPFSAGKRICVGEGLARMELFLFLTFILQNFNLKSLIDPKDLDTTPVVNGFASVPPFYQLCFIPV
Experimental: as §1, §2, §3

recombinant CYP2C9 = target: T6, recombinant CYP2C9 (Homo sapiens, UniProt P11712); assay: Vivid fluorescence-based CYP inhibition assay, recombinant CYP2C9 (BOMCC substrate); assay type: in vitro ADME
T6 construct: purchased; host or cells: insect cells (microsomes)
T6 sequence (P11712 whole entry): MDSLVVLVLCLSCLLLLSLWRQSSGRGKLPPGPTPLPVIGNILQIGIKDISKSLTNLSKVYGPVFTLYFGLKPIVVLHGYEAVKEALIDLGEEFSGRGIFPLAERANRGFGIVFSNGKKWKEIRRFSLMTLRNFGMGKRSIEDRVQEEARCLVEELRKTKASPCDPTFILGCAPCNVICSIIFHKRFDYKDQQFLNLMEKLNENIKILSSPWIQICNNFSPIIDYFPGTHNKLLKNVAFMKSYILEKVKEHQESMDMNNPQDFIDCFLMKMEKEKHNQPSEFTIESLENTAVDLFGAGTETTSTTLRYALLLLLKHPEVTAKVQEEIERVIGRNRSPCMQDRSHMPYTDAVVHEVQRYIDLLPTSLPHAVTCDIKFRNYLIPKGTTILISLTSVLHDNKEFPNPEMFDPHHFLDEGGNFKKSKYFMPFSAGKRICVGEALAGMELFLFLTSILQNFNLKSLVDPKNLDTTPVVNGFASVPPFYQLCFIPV
Experimental: as §1, §2, §3

CYP2B6 = assay: P450-Glo luminescence-based CYP induction assay in HepG2 cells, CYP2B6 (Luciferin-2B6); assay type: in vitro ADME, human; set-up: induction of CYP2B6 activity in HepG2 cells by positive control inducer: dose or concentration left out as unconfirmed
Experimental: CYP enzyme activity was measured using P50-Glo assay kits. Omeprazole (OPZ) 1 mM and rifampicin (RFC) 1 and 10 mM were used as positive controls for the luminescence-based assay. The data are expressed as a percentage of the control (DMSO 0.5%). Results are mean ± SEM of triplicate independent experiments.
HepG2 cells were seeded at a concentration of 3 × 10^4 cells per well for CYP1A2 and 1 × 10^5 cells per well for CYP2B6 and CYP2C9 in opaque white 96-well plates. After 24 h of incubation, the cells were combined with 0.5% DMSO (vehicle control), 1 mM omeprazole, 10 mM rifampicin, or 0.1–100 μM betanin for 48 h. The supernatant was then switched to fresh medium containing the same concentration of the compound and incubated for an additional 24 h. To measure luminescence, the culture medium was replaced with fresh medium containing the luciferin substrate and incubated at 37 °C in a 5% CO₂ incubator (Table 2). Next, 50 µL of each well was transferred to a well of a fresh 96-well opaque white cell culture plate and mixed with 50 µL of CYP Luciferin Detection Reagent at room temperature to initiate the enzymatic reaction. After incubation for 20 min, luminescence was measured using a SpectraMax M3 Multi-Mode Microplate Reader (Bio-Rad).

[3] = fluorescence-based, EOMCC substrate, betanin 0.1–100 μM
[4] = at any of the tested dosages (0.1–100 μM)
[5] = fluorescence-based, BOMCC substrate, betanin 0.1–100 μM

Compound | inhibitory effect on recombinant CYP2D6 (recombinant CYP2D6; 100 μM) [%] | IC50 (recombinant CYP2D6; [3]) [µM] | cytotoxicity toward HepG2 cells (MTT) (HepG2 cells) | inhibition of recombinant CYP3A4 (recombinant CYP3A4 [1]; 30 μM) [%] | inhibition of recombinant CYP3A4 (recombinant CYP3A4 [1]; 100 μM) [%] | IC50 (recombinant CYP3A4 [1]; fluorescence-based, BOMCC substrate, betanin 0.1–100 μM, 95% CI 19.09–23.06 μM) [µM] | inhibitory effect on recombinant CYP2B6 (recombinant CYP2B6; [4]) [%] | IC50 (recombinant CYP2B6; [5]) [µM] | inhibitory effect on recombinant CYP1A2 (recombinant CYP1A2; [4]) [%] | IC50 (recombinant CYP1A2; [3]) [µM] | Ki (recombinant CYP3A4 [2]; 1–20 μM BOMCC, 3, 10, 30 and 100 μM betanin, 30 min incubation, read-out: Ki (inhibition constant) for CYP3A4) [µM] | mode of inhibition of CYP3A4 (recombinant CYP3A4 [2]; Lineweaver–Burk and secondary plots) | induction effect on CYP2C9 activity in HepG2 cells (CYP2C9) | induction effect on CYP1A2 activity in HepG2 cells (CYP1A2) | inhibitory effect on recombinant CYP2C19 (recombinant CYP2C19; [4]) [%] | IC50 (recombinant CYP2C19; [3]) [µM] | inhibitory effect on recombinant CYP2C9 (recombinant CYP2C9; [4]) [%] | IC50 (recombinant CYP2C9; [5]) [µM] | induction effect on CYP2B6 activity in HepG2 cells (CYP2B6; betanin 0.1–100 μM, versus control (DMSO 0.5%)) | induction of CYP2B6 activity in HepG2 cells by positive control inducer (CYP2B6; compared to the control group)
O=C(O)C1=C/C(=C/C=[N+]2/c3cc(O)c(OC4OC(CO)[C@@H](O)C(O)C4O)cc3CC2C(=O)[O-])CC(C(=O)O)N1 (stereo in doubt) [betanin, Betanin] | 33 | > 100 | no cytotoxicity | 58 | 87 | 21 | ≤ 30 | > 100 | ≤ 30 | > 100 | 19.5 | competitive inhibitor | did not show any induction effect | did not show any induction effect | ≤ 30 | > 100 | ≤ 30 | > 100 | did not show any induction effect | 
CO[C@H]1/C=C/O[C@@]2(C)Oc3c(C)c(O)c4c(O)c(c(/C=N/N5CCN(C)CC5)c(O)c4c3C2=O)NC(=O)/C(C)=C\C=C\[C@H](C)[C@H](O)[C@@H](C)[C@@H](O)[C@@H](C)[C@H](OC(C)=O)[C@@H]1C [rifampin, reference compound] |  |  |  |  |  |  |  |  |  |  |  |  |  |  |  |  |  |  |  | significantly induced
